Data as given in US7541367B2, “3-benzoimidazolyl-pyrazolopyridines useful in treating kinase disorders” (Janssen Pharmaceutica, N.V., priority 2005, dated 2009).

Experiments:
CDK1 = target: T1, CDK1 (Homo sapiens, UniProt P06493); assay: CDK-1 kinase screening assay (33P-ATP FlashPlate); type: biochemical; conditions: human CDK1 with cyclin B; 10 μM ATP; 1 hr at 30° C
T1 construct: purchased New England Biolabs, Beverly, Mass; 6020; host or cells: insect cells

VEGF-R2 = target: T2, VEGF-R2 (Rattus norvegicus, UniProt O08775); assay: VEGF-R2 kinase screening assay (33P-ATP FlashPlate); type: biochemical; conditions: rat VEGF-R2 kinase domain; 10 μM ATP; 1 hr at 30° C;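 note: Read-out is ³³P incorporation from ³³P-γ-ATP into biotinylated peptide substrate captured on streptavidin FlashPlate, counted by scintillation, 1% DMSO final, inhibition scaled between per-plate maximum and minimum signals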
T2 construct: polyhistidine (N)

c-Src kinase = target: T3, c-Src kinase (Homo sapiens, UniProt P12931); assay: c-Src Kinase Assay; type: biochemical; conditions: 5 μM ATP
T3 construct: purchased Upstate Biotechnology, Lake Placid, N.Y
Experimental: A mixture of a 10× kinase buffer (80 mM MOPS at pH 7.0, 2 mM EDTA and 100 mM Magnesium Chloride), ATP (5 μM final from a 10 mM stock), a Cdc2 peptide […] (100 μM final from a 2.5 mM stock), γ-^33P ATP (10 μCi/μL stock) and water (for a total of 20 μL/well) was added to each well of a Streptavidin Flashplate.
Test compound in 100% DMSO (0.5 μL) was added to the appropriate wells. Diluted c-Src kinase (human) (Accession Number SWISS-PROT P12931) (Upstate Biotechnology, Lake Placid, N.Y.) (diluted in a buffer consisting of 20 mM MOPS at pH 7.0, 1 mM EDTA, β-mercaptoethanol (0.1%), Brij-35 (0.01%), glycerol (5%), and 1 mg/mL bovine serum albumin) (2.5 μL) was added to the wells to initiate the reactions. The reaction plates were incubated at 30° C. for 40 min. The reaction was terminated by the addition of a 3% phosphoric acid solution (5 μL). The reaction product (10 μL) was spotted onto a P30 filtermat and washed for 5 minutes in phosphoric acid (75 mM). The wash sequence was repeated two more times, followed with one final wash in methanol. The plates were then dried, sealed and read on the TopCount scintillation counter after adding 30 μL scintillation fluid.
(§1) A maximum and minimum signal for the assay was determined on each plate. The percent inhibition of a test compound was calculated according to the formula: […]
For a series of test concentrations, the IC50 was derived by graphing percent inhibition against the log of the concentrations tested for a given compound with results shown in Table 2
(§2) For compounds with multiple values, each value represents a separate assay result.

Aurora-A = target: T4, Aurora-A (Mus musculus, UniProt P97477); assay: Aurora-A kinase screening assay (33P-ATP FlashPlate); type: biochemical; conditions: 10 μM ATP, 1 hr at 30° C;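 note: His-tagged mouse Aurora-A phosphorylating a biotinylated peptide captured on streptavidin plates, read as 33P uptake by scintillation counting, 1% DMSO, inhibition scaled between per-plate maximum and minimum signals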
T4 construct: polyhistidine (N)
T4 sequence (P97477 1-395): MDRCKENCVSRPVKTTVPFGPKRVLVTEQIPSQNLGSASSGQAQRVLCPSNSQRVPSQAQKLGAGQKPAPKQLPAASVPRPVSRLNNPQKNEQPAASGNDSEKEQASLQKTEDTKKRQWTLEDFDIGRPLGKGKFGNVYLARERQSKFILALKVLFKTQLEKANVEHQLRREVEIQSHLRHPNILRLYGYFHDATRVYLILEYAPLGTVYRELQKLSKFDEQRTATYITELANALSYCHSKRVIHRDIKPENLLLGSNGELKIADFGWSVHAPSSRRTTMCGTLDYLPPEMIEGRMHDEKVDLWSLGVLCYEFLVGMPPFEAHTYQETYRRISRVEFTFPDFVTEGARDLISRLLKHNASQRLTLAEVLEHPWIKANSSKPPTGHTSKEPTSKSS

A375 malignant melanoma = assay: Cell Proliferation Inhibition Assay (14C-thymidine incorporation), A375; type: cell-based; conditions: Homo sapiens, A-375, A375 cells;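 note: proliferation measured by radiolabelled thymidine uptake into new DNA, counted in scintillating 96-well plates, compound-treated wells compared with DMSO-only control wells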
RET = target: T5, RET (Homo sapiens, UniProt P07949); assay: RET kinase screening assay (33P-ATP FlashPlate); type: biochemical; conditions: human RET kinase domain; 10 μM ATP; 1 hr at 30° C;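 note: biotinylated peptide substrate captured on streptavidin FlashPlate, 33P phosphate transfer read by scintillation counting, 1% DMSO, lower incorporation means inhibition, percent relative to per-plate maximum and minimum signals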
T5 construct: polyhistidine (N)
T5 sequence (P07949 658-1114 limits assumed): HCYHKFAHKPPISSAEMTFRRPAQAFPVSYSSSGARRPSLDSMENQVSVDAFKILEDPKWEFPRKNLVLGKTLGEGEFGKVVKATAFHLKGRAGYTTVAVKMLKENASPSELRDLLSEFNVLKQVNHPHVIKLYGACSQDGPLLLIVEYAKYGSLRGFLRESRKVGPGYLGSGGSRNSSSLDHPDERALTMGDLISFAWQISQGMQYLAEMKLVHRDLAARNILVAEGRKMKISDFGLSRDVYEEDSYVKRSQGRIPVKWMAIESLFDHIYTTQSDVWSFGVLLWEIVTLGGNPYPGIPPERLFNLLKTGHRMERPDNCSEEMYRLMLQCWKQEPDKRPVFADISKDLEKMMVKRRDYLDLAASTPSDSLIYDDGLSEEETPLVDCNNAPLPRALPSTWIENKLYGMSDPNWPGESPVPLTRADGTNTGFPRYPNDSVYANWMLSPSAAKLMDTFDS

Lyn kinase = target: T6, Lyn kinase (Homo sapiens, UniProt P07948); assay: Lyn Kinase Assay; type: biochemical; conditions: 5 μM ATP
T6 construct: purchased Upstate Biotechnology, Lake Placid, N.Y
Experimental: Test compound in 100% DMSO (0.5 μL) was added to the appropriate wells. Diluted Lyn kinase (human) (Accession Number EMBL M16038) (Upstate Biotechnology, Lake Placid, N.Y.) (diluted in a buffer consisting of 50 mM Tris at pH 7.5, 0.1 mM EGTA, Sodium Vanadate (0.1 mM), β-mercaptoethanol (0.1%) and 1 mg/mL bovine serum albumin) (2.5 μL) was added to the wells to initiate the reactions.
The reaction plates were incubated at 30° C. for 40 min. The reaction was terminated by the addition of a 3% phosphoric acid solution (5 μL). The reaction product (10 μL) was spotted onto a P30 filtermat and washed for 5 minutes in phosphoric acid (75 mM). The wash sequence was repeated two more times, followed with one final wash in methanol. The plates were then dried, sealed and read on the TopCount scintillation counter after adding 30 μL scintillation fluid.
as §1
For a series of test concentrations, the IC50 was derived by graphing percent inhibition against the log of the concentrations tested for a given compound with results shown in Table 3
as §2

HER2 = target: T7, HER2 (Homo sapiens, UniProt P04626); assay: HER2 kinase screening assay (33P-ATP FlashPlate); type: biochemical; conditions: GST-HIS6 HER-2 aa 679 to 1255; 10 μM ATP; 1 hr at 30° C;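 note: Biotin-poly(GT) 4:1 peptide captured on streptavidin FlashPlate, 33P transfer from γ-ATP read by scintillation counting, lower incorporation means inhibition, 1% DMSO final, 100 µL reaction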
T7 construct: GST (Glutathione-S-Transferase) (N); HIS6 (N); thrombin cleavage site (N); purchased Proqinase, Freiburg, Germany

[1] = tested on: HeLa cervical adenocarcinoma; assay: Cell Proliferation Inhibition Assay (14C-thymidine incorporation), HeLa; type: cell-based; conditions: Homo sapiens, HeLa, HeLa cells;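 note: test compound in DMSO added to cells seeded in scintillating 96-well plates, DMSO-only wells as control, uptake of methyl 14C-thymidine into new DNA counted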
HCT-116 colon carcinoma = assay: Cell Proliferation Inhibition Assay (14C-thymidine incorporation), HCT-116; type: cell-based; conditions: Homo sapiens, HCT-116, HCT-116 cells;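 note: proliferation measured as methyl 14C-thymidine uptake into new DNA, counted in 96-well scintillating microplates, compared with DMSO-only control wells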

T6 sequence (P07948 whole entry): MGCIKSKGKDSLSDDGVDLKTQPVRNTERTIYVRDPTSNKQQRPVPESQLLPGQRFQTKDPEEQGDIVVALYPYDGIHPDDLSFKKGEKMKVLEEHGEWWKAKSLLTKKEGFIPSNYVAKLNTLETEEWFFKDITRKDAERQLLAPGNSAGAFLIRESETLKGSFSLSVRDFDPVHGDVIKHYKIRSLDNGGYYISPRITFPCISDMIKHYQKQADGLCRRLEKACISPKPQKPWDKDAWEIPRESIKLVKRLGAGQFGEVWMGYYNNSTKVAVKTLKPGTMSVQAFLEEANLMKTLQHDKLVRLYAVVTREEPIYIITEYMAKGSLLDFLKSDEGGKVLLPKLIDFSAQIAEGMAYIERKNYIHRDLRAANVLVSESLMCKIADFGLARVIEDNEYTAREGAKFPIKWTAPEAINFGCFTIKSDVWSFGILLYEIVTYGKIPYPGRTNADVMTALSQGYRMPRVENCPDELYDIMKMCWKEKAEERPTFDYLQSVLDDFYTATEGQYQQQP
T3 sequence (P12931 whole entry): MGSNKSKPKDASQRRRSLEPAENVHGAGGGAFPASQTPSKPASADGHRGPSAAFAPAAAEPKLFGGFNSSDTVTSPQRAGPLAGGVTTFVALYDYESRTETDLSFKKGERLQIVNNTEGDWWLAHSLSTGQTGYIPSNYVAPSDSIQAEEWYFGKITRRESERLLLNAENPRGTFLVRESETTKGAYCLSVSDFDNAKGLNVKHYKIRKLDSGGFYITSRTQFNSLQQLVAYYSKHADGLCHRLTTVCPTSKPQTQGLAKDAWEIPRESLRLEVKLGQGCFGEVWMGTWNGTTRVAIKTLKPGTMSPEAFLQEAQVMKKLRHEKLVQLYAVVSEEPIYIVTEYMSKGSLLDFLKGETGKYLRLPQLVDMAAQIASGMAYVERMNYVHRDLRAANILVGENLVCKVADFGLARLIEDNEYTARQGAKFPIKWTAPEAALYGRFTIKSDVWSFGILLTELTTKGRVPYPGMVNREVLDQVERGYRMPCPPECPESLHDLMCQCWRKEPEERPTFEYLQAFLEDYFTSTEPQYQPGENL
T2 sequence (O08775 786-1343): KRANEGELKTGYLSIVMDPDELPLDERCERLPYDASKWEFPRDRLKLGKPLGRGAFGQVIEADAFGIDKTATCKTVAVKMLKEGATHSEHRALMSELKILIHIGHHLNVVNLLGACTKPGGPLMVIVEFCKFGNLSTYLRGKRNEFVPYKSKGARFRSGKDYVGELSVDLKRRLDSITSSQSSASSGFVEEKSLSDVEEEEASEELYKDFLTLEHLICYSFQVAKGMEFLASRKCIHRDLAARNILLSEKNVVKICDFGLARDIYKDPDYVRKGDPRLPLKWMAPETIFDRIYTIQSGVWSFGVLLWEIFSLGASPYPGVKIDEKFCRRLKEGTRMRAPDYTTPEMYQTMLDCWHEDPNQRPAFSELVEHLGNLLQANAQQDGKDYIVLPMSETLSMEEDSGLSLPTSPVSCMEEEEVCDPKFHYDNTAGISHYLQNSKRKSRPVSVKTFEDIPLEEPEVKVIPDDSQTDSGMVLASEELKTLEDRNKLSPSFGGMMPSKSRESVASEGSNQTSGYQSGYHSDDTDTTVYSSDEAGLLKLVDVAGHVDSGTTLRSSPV
T7 sequence (P04626 679-1255): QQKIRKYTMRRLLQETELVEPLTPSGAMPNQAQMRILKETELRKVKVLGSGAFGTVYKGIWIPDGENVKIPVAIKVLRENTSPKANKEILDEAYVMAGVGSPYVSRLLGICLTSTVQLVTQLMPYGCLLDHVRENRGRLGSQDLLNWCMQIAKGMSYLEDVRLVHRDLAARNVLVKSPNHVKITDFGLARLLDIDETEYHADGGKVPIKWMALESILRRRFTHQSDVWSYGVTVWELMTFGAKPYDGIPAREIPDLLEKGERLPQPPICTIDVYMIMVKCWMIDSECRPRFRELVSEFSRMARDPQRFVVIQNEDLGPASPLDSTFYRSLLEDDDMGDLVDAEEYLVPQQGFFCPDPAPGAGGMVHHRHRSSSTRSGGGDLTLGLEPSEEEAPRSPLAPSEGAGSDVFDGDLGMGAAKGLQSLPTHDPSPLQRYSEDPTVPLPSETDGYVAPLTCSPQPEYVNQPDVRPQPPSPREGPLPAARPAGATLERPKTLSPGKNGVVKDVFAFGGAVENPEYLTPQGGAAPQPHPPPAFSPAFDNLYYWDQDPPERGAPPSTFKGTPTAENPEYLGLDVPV
T1 sequence (P06493 whole entry): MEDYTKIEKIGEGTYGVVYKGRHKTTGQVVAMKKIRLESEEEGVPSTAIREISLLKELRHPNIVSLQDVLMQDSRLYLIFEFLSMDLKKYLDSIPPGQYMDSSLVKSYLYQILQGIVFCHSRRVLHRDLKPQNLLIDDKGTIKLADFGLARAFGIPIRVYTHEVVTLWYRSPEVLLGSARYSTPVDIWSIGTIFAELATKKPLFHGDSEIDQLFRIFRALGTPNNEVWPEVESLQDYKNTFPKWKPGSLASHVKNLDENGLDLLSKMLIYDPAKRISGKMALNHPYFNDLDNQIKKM
T1 sequence (P14635 whole entry partner): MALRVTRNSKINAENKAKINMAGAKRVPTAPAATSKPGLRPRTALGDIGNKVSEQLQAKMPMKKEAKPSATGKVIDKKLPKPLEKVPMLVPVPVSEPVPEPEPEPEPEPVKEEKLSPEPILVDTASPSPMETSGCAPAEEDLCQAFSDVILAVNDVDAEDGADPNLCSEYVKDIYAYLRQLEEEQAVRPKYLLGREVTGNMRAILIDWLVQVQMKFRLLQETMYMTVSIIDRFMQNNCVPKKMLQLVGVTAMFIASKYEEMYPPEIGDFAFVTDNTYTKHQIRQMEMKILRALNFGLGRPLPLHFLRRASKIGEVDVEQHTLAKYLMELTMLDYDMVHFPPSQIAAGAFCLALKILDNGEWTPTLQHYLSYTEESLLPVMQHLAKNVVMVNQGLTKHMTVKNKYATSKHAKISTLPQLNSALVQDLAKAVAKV

SMILES | IC50 (CDK1) [nM] | IC50 (VEGF-R2) [nM] | IC50 (c-Src kinase) [nM] | IC50 (Aurora-A) [nM] | IC50 (A375 malignant melanoma) [nM] | IC50 (RET) [nM] | IC50 (Lyn kinase) [nM] | IC50 (HER2) [nM] | IC50 [1] [nM] | IC50 (HCT-116 colon carcinoma) [nM]
NC1CCC(NC(=O)c2cccc3[nH]c(-c4n[nH]c5ncc(-c6cncc7ccccc67)cc45)nc23)CC1 (stereo not shown) [Cpd 45, 2-(5-isoquinolin-4-yl-1H-pyrazolo[3,4-b]pyridin-3-yl)-1H-benzoimidazole-4-carboxylic acid (4-amino-cyclohexyl)-amide] | 34.9 | > 100 | 0.653 | 40 | 28500 | > 100000 | 1.33 | 31000 | 7520 | > 10000
O=C(Nc1cccnc1)c1cccc2[nH]c(-c3n[nH]c4ncc(-c5cncc6ccccc56)cc34)nc12 [Cpd 48, 2-(5-isoquinolin-4-yl-1H-pyrazolo[3,4-b]pyridin-3-yl)-1H-benzoimidazole-4-carboxylic acid pyridin-3-ylamide] | 18.5 | ~10 | 5 | ~1000 | 188 | > 10000 | 23.6 | > 100000 | 300 | 488
CCN(CC)c1ccc(NC(=O)c2cccc3[nH]c(-c4n[nH]c5ncc(-c6cncc7ccccc67)cc45)nc23)c(C)c1 [Cpd 50, 2-(5-isoquinolin-4-yl-1H-pyrazolo[3,4-b]pyridin-3-yl)-1H-benzoimidazole-4-carboxylic acid (4-diethylamino-2-methyl-phenyl)-amide] | 40.6 | > 100000 | 1.04 | 168 | 242 | > 10000 | 5.21 | > 100000 | 258 | 455
CCN(CC)Cc1cccc2[nH]c(-c3n[nH]c4ncc(-c5cccnc5)cc34)nc12 [Cpd 52, diethyl-[2-(5-pyridin-3-yl-1H-pyrazolo[3,4-b]pyridin-3-yl)-1H-benzoimidazol-4-ylmethyl]-amine] | 24.6 | 1030 | 570 | 3620 | 247 | ~10000 | 299 | > 100000 | 454 | 345

More lines, now with the values ahead:

IC50 (CDK1) [nM] | IC50 (VEGF-R2) [nM] | IC50 (c-Src kinase) [nM] | IC50 (Aurora-A) [nM] | IC50 (A375 malignant melanoma) [nM] | IC50 (RET) [nM] | IC50 (Lyn kinase) [nM] | IC50 (HER2) [nM] | IC50 [1] [nM] | IC50 (HCT-116 colon carcinoma) [nM] | SMILES
80.6 | 702 | 1.4 | 230 | 194 | ~10000 | 6.31 | ~100000 | 159 | 225 | Cc1ccccc1NC(=O)c1cccc2[nH]c(-c3n[nH]c4ncc(-c5cncc6ccccc56)cc34)nc12 [Cpd 46, 2-(5-isoquinolin-4-yl-1H-pyrazolo[3,4-b]pyridin-3-yl)-1H-benzoimidazole-4-carboxylic acid o-tolylamide]
64.8 | > 10000 | 1.13 | 154 | 302 | ~1000 | 4.35 | > 100000 | 334 | 426 | CN(C)c1ccc(NC(=O)c2cccc3[nH]c(-c4n[nH]c5ncc(-c6cncc7ccccc67)cc45)nc23)cc1 [Cpd 49, 2-(5-isoquinolin-4-yl-1H-pyrazolo[3,4-b]pyridin-3-yl)-1H-benzoimidazole-4-carboxylic acid (4-dimethylamino-phenyl)-amide]
2.54 | 639 | 886 | > 1000 | 268 | ~1000 | 1080 | > 100000 | 459 | 313 | CNCc1cncc(-c2cnc3[nH]nc(-c4nc5c(COC)cccc5[nH]4)c3c2)c1 [Cpd 56, {5-[3-(4-methoxymethyl-1H-benzoimidazol-2-yl)-1H-pyrazolo[3,4-b]pyridin-5-yl]-pyridin-3-ylmethyl}-methyl-amine]
